# From PMC5686171 (Scientific Reports, 2017)
# Read-outs that look alike come from different tables or passages of the source.
# Legend:
# [1] = molecular target: T1, γ2F77Yβ2 (Rattus norvegicus, UniProt P18508+P63138, F115Y); assay: Two-electrode voltage clamp, mutant γ2F77Yβ2 in Xenopus oocytes; format: cell-based; conditions: for DZ potentiation: 1 µM diazepam
# T1 construct: expressed in transfected cells; host or cells: Xenopus laevis oocytes (cRNA injection, β2:γ2 1:3)
# Method: (§1) The point mutations β2Y62Lγ2, β2T202Aγ2, β2T202Sγ2, β2Y205Sγ2, β2Y205Qγ2, β2γ2F77Y, β2γ2S217A, β2γ2Y220S and β2γ2Y220Q were prepared using the QuickChange^TM mutagenesis kit (Stratagene, Agilent Technologies, Basel, Switzerland).
# (§2) Animal experiments were carried out in strict accordance to the Swiss ethical guidelines, and have been approved by the local committee of the Canton Bern Kantonstierarzt, Kantonaler Veterinärdienst Bern (BE85/15). Surgery of Xenopus laevis to obtain the oocytes was done under anesthesia, and all efforts were made to diminish animal suffering. Oocytes were prepared, injected and defolliculated as described previously[41],[42]. Polyadenylated cRNA coding for the subunits of GABAA receptors were prepared in vitro with the mMESSAGE mMACHINE kit (Ambion, Austin, TX, USA). Oocytes were injected with 50 nl of solution containing cRNA coding for wild type or mutants β2 (1 fMol) or γ2 (3 fMol) subunits and then incubated in modified Barth’s solution (10 mM HEPES, pH 7.5, 88 mM NaCl, 1 mM KCl, 2.4 mM NaHCO3, 0.82 mM MgSO4, 0.34 mM Ca(NO3)2, 0.41 mM CaCl2, 100 units/ml penicillin, 100 µg/ml streptomycin) at 18 °C for 5–7 days before measurements.
# (§3) Electrophysiological experiments were performed using an Oocyte Clamp OC-725 (Warner Instrument Corp., Hamden, USA) two-electrode voltage clamp amplifier. Currents were digitized at 5 kHz with MacLab/200 (AD Instruments, Spechbach, Germany).
# (§4) The holding potential was −80 mV. The perfusion medium contained 90 mM NaCl, 1 mM KCl, 1 mM MgCl2, 1 mM CaCl2 and 5 mM Na-HEPES (pH 7.4). The perfusion solution (6 ml/min) was applied through a glass capillary with an inner diameter of 1.35 mm, the mouth of which was placed about 0.5 mm from the surface of the oocyte. […] Maximal current amplitudes (Imax) were obtained from the fits of the concentration-response curves. The individual curves were fitted and standardized to Imax and subsequently averaged. […] The duration of washout periods was 4 min in between agonist or agonist/drug applications to prevent receptor desensitization. […]
# [2] = molecular target: T2, β2T202Sγ2 (Rattus norvegicus, UniProt P18508+P63138, T226S); assay: Two-electrode voltage clamp, mutant β2T202Sγ2 in Xenopus oocytes; format: cell-based; conditions: for DZ potentiation: 1 µM diazepam
# T2 construct: expressed in transfected cells; host or cells: Xenopus laevis oocytes (cRNA injection, β2:γ2 1:3)
# T2 sequence (P63138 25-474 T226S limits assumed): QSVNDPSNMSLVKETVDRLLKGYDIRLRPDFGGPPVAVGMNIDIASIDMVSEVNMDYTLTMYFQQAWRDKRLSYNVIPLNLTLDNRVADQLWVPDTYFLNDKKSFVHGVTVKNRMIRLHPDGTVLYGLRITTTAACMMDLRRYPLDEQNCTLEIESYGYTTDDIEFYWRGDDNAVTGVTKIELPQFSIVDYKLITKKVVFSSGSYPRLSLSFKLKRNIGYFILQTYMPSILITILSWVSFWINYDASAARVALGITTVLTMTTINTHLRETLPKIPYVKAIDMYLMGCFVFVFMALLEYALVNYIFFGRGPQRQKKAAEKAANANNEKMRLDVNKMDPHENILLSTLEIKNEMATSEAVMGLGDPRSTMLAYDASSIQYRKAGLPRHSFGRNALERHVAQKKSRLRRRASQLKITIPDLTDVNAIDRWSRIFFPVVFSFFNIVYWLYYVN
# T2 sequence (P18508 39-466): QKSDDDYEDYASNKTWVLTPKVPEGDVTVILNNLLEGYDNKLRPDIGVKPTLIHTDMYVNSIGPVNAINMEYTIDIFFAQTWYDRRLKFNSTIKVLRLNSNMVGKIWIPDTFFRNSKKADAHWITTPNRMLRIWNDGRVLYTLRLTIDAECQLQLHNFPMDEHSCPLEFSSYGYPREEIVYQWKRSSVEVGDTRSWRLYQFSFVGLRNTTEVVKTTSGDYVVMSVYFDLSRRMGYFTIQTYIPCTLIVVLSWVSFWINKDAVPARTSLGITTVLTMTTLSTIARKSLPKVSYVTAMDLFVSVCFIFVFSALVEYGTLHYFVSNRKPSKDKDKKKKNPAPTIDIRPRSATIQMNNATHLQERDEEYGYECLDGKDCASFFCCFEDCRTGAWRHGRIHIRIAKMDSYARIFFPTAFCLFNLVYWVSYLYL
# Method: as §1, §2, §3, §4
# [3] = molecular target: T3, β2 (Rattus norvegicus, UniProt P63138); assay: Two-electrode voltage clamp, β2 subunit expressed alone in Xenopus oocytes; format: cell-based
# T3 construct: expressed in transfected cells; host or cells: Xenopus laevis oocytes (cRNA injection)
# T3 sequence (P63138 25-474 limits assumed): as the sequence (P63138 25-474 T226S limits assumed) above, with S202T counted along it
# Method: as §2, §3
# (§5) The holding potential was −80 mV. The perfusion medium contained 90 mM NaCl, 1 mM KCl, 1 mM MgCl2, 1 mM CaCl2 and 5 mM Na-HEPES (pH 7.4). […]
# [4] = molecular target: T4, γ2Y220Qβ2 (Rattus norvegicus, UniProt P18508+P63138, Y258Q); assay: Two-electrode voltage clamp, mutant γ2Y220Qβ2 in Xenopus oocytes; format: cell-based; conditions: for DZ potentiation: 1 µM diazepam
# T4 construct: expressed in transfected cells; host or cells: Xenopus laevis oocytes (cRNA injection, β2:γ2 1:3)
# T4 sequence (P63138 25-474 limits assumed): as the sequence (P63138 25-474 T226S limits assumed) above, with S202T counted along it
# T4 sequence (P18508 39-466 Y258Q): as the sequence (P18508 39-466) above, with Y220Q counted along it
# Method: as §1, §2, §3, §4
# [5] = molecular target: T5, β2γ2 GABAA receptors (Rattus norvegicus, UniProt P18508+P63138); assay: Two-electrode voltage clamp, wild type β2γ2 receptors expressed in Xenopus oocytes; format: cell-based; conditions: for GABA current amplitude: 10 mM GABA; for DZ potentiation: 1 µM diazepam, GABA eliciting 1–5% of maximal current
# T5 construct: expressed in transfected cells; host or cells: Xenopus laevis oocytes (cRNA injection, β2:γ2 1:3)
# T5 sequence (P63138 25-474 limits assumed): as the sequence (P63138 25-474 T226S limits assumed) above, with S202T counted along it
# T5 sequence (P18508 39-466): as the sequence (P18508 39-466) above
# Method: as §2, §3, §4
# [6] = molecular target: T6, γ2 (Rattus norvegicus, UniProt P18508); assay: Two-electrode voltage clamp, γ2 subunit expressed alone in Xenopus oocytes; format: cell-based
# T6 construct: expressed in transfected cells; host or cells: Xenopus laevis oocytes (cRNA injection)
# T6 sequence (P18508 39-466): as above
# Method: as §2, §3, §5
# [7] = molecular target: T7, γ2S217Aβ2 (Rattus norvegicus, UniProt P18508+P63138, S255A); assay: Two-electrode voltage clamp, mutant γ2S217Aβ2 in Xenopus oocytes; format: cell-based; conditions: for DZ potentiation: 1 µM diazepam
# T7 construct: expressed in transfected cells; host or cells: Xenopus laevis oocytes (cRNA injection, β2:γ2 1:3)
# T7 sequence (P63138 25-474 limits assumed): as the sequence (P63138 25-474 T226S limits assumed) above, with S202T counted along it
# T7 sequence (P18508 39-466 S255A): as the sequence (P18508 39-466) above, with S217A counted along it
# Method: as §1, §2, §3, §4
# [8] = molecular target: T8, β2Y62Lγ2 (Rattus norvegicus, UniProt P18508+P63138, Y86L); assay: Two-electrode voltage clamp, mutant β2Y62Lγ2 in Xenopus oocytes; format: cell-based; conditions: for DZ potentiation: 1 µM diazepam
# T8 construct: expressed in transfected cells; host or cells: Xenopus laevis oocytes (cRNA injection, β2:γ2 1:3)
# T8 sequence (P63138 25-474 Y86L limits assumed): as the sequence (P63138 25-474 T226S limits assumed) above, with Y62L, S202T counted along it
# T8 sequence (P18508 39-466): as the sequence (P18508 39-466) above
# Method: as §1, §2, §3, §4
# [9] = system: mice carrying a point mutation in all those four alpha subunits; set-up: method as in Ralvenius et al.[40]; conditions: point-mutated mice, 10 mg/kg diazepam, ref Ralvenius et al.[40], cited from earlier work
# [10] = system: α1T206V in α1β2γ2; conditions: ref [28]; cited from earlier work
# [11] = system: γ2F77Y in α1β2γ2; conditions: ref [29], cited from earlier work
# [12] = system: α1β2γ2; conditions: read-out: EC50 of diazepam; cited from earlier work
# [13] = system: α1T206A in α1β2γ2; conditions: ref [26]; cited from earlier work
# [14] = system: α1T206C in α1β2γ2; conditions: ref [12],[27]; cited from earlier work
# [15] = molecular target: T9, β2Y205Qγ2 (Rattus norvegicus, UniProt P18508+P63138, Y229Q); assay: Two-electrode voltage clamp, mutant β2Y205Qγ2 in Xenopus oocytes; format: cell-based; conditions: 50 µM etomidate
# T9 construct: expressed in transfected cells; host or cells: Xenopus laevis oocytes (cRNA injection, β2:γ2 1:3)
# T9 sequence (P63138 25-474 Y229Q): as the sequence (P63138 25-474 T226S limits assumed) above, with S202T, Y205Q counted along it
# T9 sequence (P18508 39-466): as the sequence (P18508 39-466) above
# Method: as §1, §2
# (§6) Electrophysiological experiments were performed using an Oocyte Clamp OC-725 (Warner Instrument Corp., Hamden, USA) two-electrode voltage clamp amplifier. […]
# [16] = molecular target: T10, β2Y205Sγ2 (Rattus norvegicus, UniProt P18508+P63138, Y229S); assay: Two-electrode voltage clamp, mutant β2Y205Sγ2 in Xenopus oocytes; format: cell-based; conditions: 50 µM etomidate
# T10 construct: expressed in transfected cells; host or cells: Xenopus laevis oocytes (cRNA injection, β2:γ2 1:3)
# T10 sequence (P63138 25-474 Y229S): as the sequence (P63138 25-474 T226S limits assumed) above, with S202T, Y205S counted along it
# T10 sequence (P18508 39-466): as the sequence (P18508 39-466) above
# Method: as §1, §2, §6
# [17] = system: α1β2Y62Lγ2 receptors; assay: Effect of mutation β2Y62L in α1β2γ2 receptors; format: cell-based; conditions: 50 µM etomidate vs GABA
# [18] = molecular target: T11, γ2Y220Sβ2 (Rattus norvegicus, UniProt P18508+P63138, Y258S); assay: Two-electrode voltage clamp, mutant γ2Y220Sβ2 in Xenopus oocytes; format: cell-based; conditions: 50 µM etomidate
# T11 construct: expressed in transfected cells; host or cells: Xenopus laevis oocytes (cRNA injection, β2:γ2 1:3)
# T11 sequence (P63138 25-474 limits assumed): as the sequence (P63138 25-474 T226S limits assumed) above, with S202T counted along it
# T11 sequence (P18508 39-466 Y258S): as the sequence (P18508 39-466) above, with Y220S counted along it
# Method: as §1, §2, §6
# [19] = molecular target: T12, β2T202Aγ2 (Rattus norvegicus, UniProt P18508+P63138, T226A); assay: Two-electrode voltage clamp, mutant β2T202Aγ2 in Xenopus oocytes; format: cell-based; conditions: 50 µM etomidate
# T12 construct: expressed in transfected cells; host or cells: Xenopus laevis oocytes (cRNA injection, β2:γ2 1:3)
# T12 sequence (P63138 25-474 T226A): as the sequence (P63138 25-474 T226S limits assumed) above, with S202A counted along it
# T12 sequence (P18508 39-466): as the sequence (P18508 39-466) above
# Method: as §1, §2, §6
# T1 sequence (P63138 25-474 limits assumed): as the sequence (P63138 25-474 T226S limits assumed) above, with S202T counted along it
# T1 sequence (P18508 39-466 F115Y): as the sequence (P18508 39-466) above, with F77Y counted along it
smiles,measurement,setting,value
"NCCCC(=O)O [GABA, γ-Aminobutyric acid]",Hill coefficient of GABA,[1],0.9 ± 0.1
same,GABA current amplitude,[1]; 10 mM GABA,148 ± 23 (11) nA
same,Hill coefficient of GABA,[2]; β2T202Sγ2,0.8 ± 0.1
same,GABA current amplitude,"[2]; β2T202Sγ2, 10 mM GABA",203 ± 18 (5) nA
same,Decrease in GABA sensitivity,[2]; β2T202Sγ2 vs wild-type β2γ2,42 fold
same,GABA current amplitude,[3]; 10 mM GABA,−4 ± 1 (4) nA
same,Hill coefficient of GABA,[4]; β2γ2Y220Q,0.7 ± 0.1
same,Decrease in sensitivity to GABA,[4]; β2γ2Y220Q vs wild-type β2γ2,5 fold
same,GABA current amplitude,"[4]; γ2Y220Qβ2, 10 mM GABA",127 ± 40 (6) nA
same,Hill coefficient of GABA,[5]; β2γ2,1.0 ± 0.1
same,GABA current amplitude,"[5]; β2γ2, cRNA ratio 1:3, −80 mV",131 ± 19 (13) nA
same,GABA current amplitude,[5]; β2γ2 from 1:1 and 2:1 cRNA ratios,less than 100 nA
same,GABA current amplitude,[6]; 10 mM GABA,−4 ± 1 (5) nA
same,Hill coefficient of GABA,[7]; β2γ2S217A,0.8 ± 0.1
same,Decrease in sensitivity to GABA,[7]; β2γ2S217A vs wild-type β2γ2,2 fold
same,GABA current amplitude,"[7]; γ2S217Aβ2, 10 mM GABA",100 ± 25 (13) nA
same,Hill coefficient of GABA,[8]; β2Y62Lγ2,1.0 ± 0.1
same,GABA current amplitude,"[8]; β2Y62Lγ2, 10 mM GABA",53 ± 8 (17) nA
same,Decrease in the sensitivity for GABA,[8]; β2Y62Lγ2 vs wild-type β2γ2,3 fold
same,Smaller GABA current amplitude compared to wild-type,[8]; β2Y62Lγ2 vs wild-type β2γ2,2 fold
CN1C(=O)CN=C(c2ccccc2)c2cc(Cl)ccc21 [diazepam],Locomotor activity,[9]; quite prominent at higher doses,trend towards reduced locomotor activity
same,Diazepam-induced muscle relaxation and motor impairment,[9],completely protected
same,DZ potentiation,[1],nearly lost
same,DZ potentiation,[1]; listed as DZ,5 ± 2 (5) %
same,DZ potentiation,[2]; β2T202Sγ2,not significantly affected
same,DZ potentiation,"[2]; β2T202Sγ2, listed as DZ",100 ± 7 (4) %
same,Decrease in DZ affinity,[10],(7-fold decrease in DZ affinity)
same,Decrease in DZ affinity,[11]; listed as DZ,230-fold decrease in DZ affinity
same,Decrease in DZ affinity,[11],abolishes the binding site
same,DZ potentiation,[4]; γ2Y220Qβ2,not significantly affected
same,DZ potentiation,"[4]; γ2Y220Qβ2, listed as DZ",127 ± 11 (6) %
same,EC50,[12],92 ± 6 nM
same,Hill coefficient of diazepam,[5]; β2γ2,0.6 ± 0.1
same,DZ potentiation,[5]; β2γ2,216 ± 30%
same,DZ potentiation,"[5]; β2γ2, listed as DZ",216 ± 30 (15) %
same,Decrease in DZ affinity,[13],(3-fold decrease in DZ affinity)
same,Effect on DZ affinity,[14],(no effect on DZ affinity)
same,DZ potentiation,[7]; γ2S217Aβ2,not significantly affected
same,DZ potentiation,"[7]; γ2S217Aβ2, listed as DZ",185 ± 23 (4) %
same,DZ potentiation,[8]; β2Y62Lγ2,not significantly affected
same,DZ potentiation,"[8]; β2Y62Lγ2, listed as DZ",121 ± 12 (5) %
CCOC(=O)c1cncn1[C@H](C)c1ccccc1 [etomidate],Etomidate current amplitude,[1]; 50 µM etomidate,193 ± 25 (4) nA
same,Etomidate current amplitude,"[2]; β2T202Sγ2, 50 µM etomidate",380 ± 77 (5) nA
same,Etomidate current amplitude,[3]; 50 µM etomidate,4 ± 1 (4) nA
same,Etomidate current amplitude,"[4]; γ2Y220Qβ2, 50 µM etomidate",777 ± 113 (5) nA
same,Etomidate current amplitude,[15],6 ± 2 (5) nA
same,Etomidate current relative to GABA current (fold larger),"[5]; wild type β2γ2, 50 µM etomidate vs saturating GABA",about 7 fold
same,Etomidate current amplitude,"[5]; β2γ2, 50 µM etomidate, −80 mV",946 ± 8 (4) nA
same,Etomidate current amplitude,[16],0 ± 0 (5) nA
same,Etomidate current amplitude,[6]; 50 µM etomidate,0 ± 0 (5) nA
same,Etomidate current amplitude,"[7]; γ2S217Aβ2, 50 µM etomidate",141 ± 31 (5) nA
same,Etomidate current relative to GABA current (fold smaller),[17],about 30 fold
same,Etomidate current amplitude,[18],76 ± 17 (5) nA
same,Etomidate current amplitude,"[8]; β2Y62Lγ2, 50 µM etomidate",13 ± 3 (11) nA
same,Etomidate current relative to GABA current (fold smaller),"[8]; β2Y62Lγ2, 50 µM etomidate vs saturating GABA",about 4 fold
same,Etomidate current amplitude,[19],8 ± 2 (5) nA
